These results are taken from US11905281B2 (Amgen Inc., priority 2017, dated 2024).

Like-named read-outs stand apart in the source and are kept apart here.

Experiment [1] has as its target GDP-bound KRAS protein (aa 1-169), containing both G12C and C118A amino acid substitutions (Homo sapiens, UniProt P01116, C118A/G12C). Kind of experiment: Coupled Nucleotide Exchange Assay (Table 15 conditions: 2 hours pre-incubation). The format is biochemical. To be noted: 2 hours compound pre-incubation (Table 15 conditions). The procedure:
(§1) For compounds in Table 15, the following assay conditions were employed:
Following compound pre-incubation, purified SOS protein (aa 564-1049) and GTP (Roche 10106399001) were added to the assay wells and incubated for an additional hour. […] The assay plates were then read on a PerkinElmer EnVision Multilabel Reader, using AlphaScreen® technology, and data were analyzed using a 4-parameter logistic model to calculate IC50 values.

The subject of experiment [2] is Phosphorylation of ERK1/2 in A549 cells. Put plainly: Phospho-ERK1/2 MSD Assay, A549 (Table 15 conditions: 4 hours compound treatment). The format is cell-based. To be noted: Homo sapiens, A549, 4 h, EGF stimulation, read-out: p-ERK IC50 (A549). As for the experimental part:
as §1
(§2) Phospho-ERK1/2 MSD Assay: MIA PaCa-2 (ATCC® CRL-1420™) and A549 (ATCC® CCL-185™) cells were cultured in RPMI 1640 Medium (ThermoFisher Scientific 11875093) containing 10% fetal bovine serum (ThermoFisher Scientific 16000044) and 1× penicillin-streptomycin-glutamine (ThermoFisher Scientific 10378016). Sixteen hours prior to compound treatment, MIA PaCa-2 or A549 cells were seeded in 96-well cell culture plates at a density of 25,000 cells/well and incubated at 37° C., 5% CO2. A compound dose-response titration was diluted in growth media, added to appropriate wells of a cell culture plate, and then incubated at 37° C., 5% CO2 for 4 hours. Following compound treatment, cells were stimulated with 10 ng/mL EGF (Roche 11376454001) for 10 min, washed with ice-cold Dulbecco's phosphate-buffered saline, no Ca^2+ or Mg^2+ (ThermoFisher Scientific 14190144), and then lysed in RIP A buffer (50 mM Tris-HCl pH 7.5, 1% Igepal, 0.5% sodium deoxycholate, 150 mM NaCl, and 0.5% sodium dodecyl sulfate) containing protease inhibitors (Roche 4693132001) and phosphatase inhibitors (Roche 4906837001). Cell lysates were stored frozen at −80° C. overnight. Phosphorylation of ERK1/2 in compound-treated lysates was assayed using Phospho-ERK1/2 Whole Cell Lysate kits (Meso Scale Discovery K151DWD) according to the manufacturer's protocol. Assay plates were read on a Meso Scale Discovery Sector Imager 6000, and data were analyzed using a 4-parameter logistic model to calculate IC50 values.

In experiment [3] the test system is Phosphorylation of ERK1/2 in MIA PaCa-2 cells. Kind of experiment: Phospho-ERK1/2 MSD Assay, MIA PaCa-2 (Table 15 conditions: 4 hours compound treatment). The format is cell-based. The settings on record: EGF stimulation, read-out: p-ERK IC50 (MIA PaCa-2). As for the experimental part:
as §1, §2

Sequence of GDP-bound KRAS protein (aa 1-169), containing both G12C and C118A amino acid substitutions (P01116 1-169 isoform P01116-2 G12C/C118A): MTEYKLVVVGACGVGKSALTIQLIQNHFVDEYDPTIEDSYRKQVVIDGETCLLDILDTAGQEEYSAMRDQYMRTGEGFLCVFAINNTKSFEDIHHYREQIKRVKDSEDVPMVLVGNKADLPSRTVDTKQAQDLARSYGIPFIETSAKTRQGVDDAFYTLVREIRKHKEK

On to `C=CC(=O)N1CCN(c2snc3c(F)c(-c4cc(O)cc5ccccc45)c(Cl)cc23)CC1CO` (racemic) [Example 1-16, 1-(4-(5-chloro-7-fluoro-6-(3-hydroxy-1-naphthalenyl)-2,1-benzothiazol-3-yl)-2-(hydroxymethyl)-1-piperazinyl)-2-propen-1-one], for which the “Coupled exchange IC50” value in experiment [1] came out at 0.492 µM. Further, the concentration for half-maximal inhibition (IC50) in experiment [2] is over 100 µM.
`C=CC(=O)N1CCN(c2snc3c(F)c(-c4c(C)ccc5[nH]ncc45)c(Cl)cc23)C(C(F)F)C1` (racemic) [Example 2-8, 1-(4-(5-chloro-7-fluoro-6-(5-methyl-1H-indazol-4-yl)-2,1-benzothiazol-3-yl)-3-(difluoromethyl)-1-piperazinyl)-2-propen-1-one]: the “Coupled exchange IC50” value in experiment [1] was 0.361 µM. Further, the IC50 in experiment [2] is over 100 µM.
Consider `C=CC(=O)N1CCN(c2snc3c(F)c(-c4cc(O)cc5ccccc45)c(Cl)cc23)C(C(C)C)C1` (racemic) [Example 2-10, 1-(4-(5-chloro-7-fluoro-6-(3-hydroxy-1-naphthalenyl)-2,1-benzothiazol-3-yl)-3-(2-propanyl)-1-piperazinyl)-2-propen-1-one], for which the “Coupled exchange IC50” value in experiment [1] turned out to be 1.73 µM. The IC50 in experiment [3] (Homo sapiens, MIA PaCa-2, 4 h) was 3.07 µM; in experiment [2], over 100 µM.
Consider `C=CC(=O)N1CCN(c2snc3c(F)c(-c4cc(O)cc5ccccc45)c(Cl)cc23)C(CF)C1` (racemic) [Example 7-2, 1-(4-(5-chloro-7-fluoro-6-(3-hydroxy-1-naphthalenyl)-2,1-benzothiazol-3-yl)-3-(fluoromethyl)-1-piperazinyl)-2-propen-1-one], for which the “Coupled exchange IC50” value in experiment [1] came out at 0.180 µM. In addition, the IC50 in experiment [2] is over 100 µM.
With `C=CC(=O)N1CCN(c2nc(=O)n(-c3ccncc3C3CC3)c3cc(-c4c(O)cccc4F)c(Cl)cc23)[C@@H](C)C1` (single isomer, unassigned) [Example 9-7-2], in experiment [3], the half-maximal inhibitory concentration (IC50) amounted to 0.232 µM.
As to `C=CC(=O)N1CCN(c2nnc(-c3c(C)ccc4[nH]ncc34)c3cc(-c4c(O)cccc4F)c(Cl)cc23)CC1` [Example 10-12, 1-(4-(7-chloro-6-(2-fluoro-6-hydroxyphenyl)-4-(5-methyl-1H-indazol-4-yl)-1-phthalazinyl)-1-piperazinyl)-2-propen-1-one], the IC50 in experiment [3] (Homo sapiens, MIA PaCa-2, 4 h) came out at 22.6 µM.
